Values of other authors in patent US12090225B2 (Avalyn Pharma Inc., priority 2018, dated 2024).

Conditions: cited from earlier work

## COC(=O)c1ccc2c(c1)NC(=O)/C2=C(\Nc1ccc(N(C)C(=O)CN2CCN(C)CC2)cc1)c1ccccc1 [Nintedanib, methyl (3Z)-3-[[4-[methyl-[2-(4-methylpiperazin-1-yl)acetyl]amino]anilino]-phenylmethylidene]-2-oxo-1H-indole-6-carboxylate]
In vivo
  administered nintedanib excreted in the urine: About 80%
Oral nintedanib
  oral bioavailability: 5%
